Assays:
[1] = system: Cabernet Franc grapevines; test: Fall foliar spray of Cabernet Franc grapevines with PBI-425 or PBI-524, broken buds the following spring; assay type: in vivo; conditions: for Average number of broken buds per vine: Apr. 11, 2012; for Effect on bud break the following spring / Impact on bud mortality: foliar application at about 0.03-0.3 grams per vine in the fall
Protocol: A study was conducted to determine the elect of spraying Cabernet Franc grapevines with ABA analog PBI-425 or PBI-524 in the fall on bud break the following spring. Mature Cabernet Franc grapevines growing in a research vineyard in Benton Harbor, Mich. were sprayed to drip with surfactant alone or surfactant and ABA analog on Oct. 21, 2011. Vines were sprayed with approximately 300 ml applied to each of 9 vines per treatment arranged in three replicates of three vines each. Applied at about 100 gallons per acre 100 ppm treatment represents 37.8 grams per acre and 1000 ppm represents 378.4 grams per acre. In the spring after treatment prior to bud break the vines were pruned to 3-6 buds per spur and bud break of the entire vine was determined in the spring.

[2] = system: Cabernet Franc grapevines; test: Fall foliar spray of Cabernet Franc grapevines, fruit maturity the following fall (juice pH and Brix); assay type: in vivo; conditions: for Brix of juice / pH of juice: 300 ppm in 0.1% Brij 98, fall foliar application, grapes harvested on Oct. 24, 2009; for Effect on maturation of the following crop of grapes (juice pH and Brix): foliar application at about 0.125 grams per vine in the fall
Protocol: (§1) A study was conducted to determine the effect of spraying grapevines with ABA analogs in the fail on bud break the following spring. Mature Cabernet Franc grapevines growing in a research vineyard in Benton Harbor, Mich. were sprayed to drip with surfactant alone or surfactant and ABA analog on Oct. 25, 2008. Vines were sprayed with approximately 300 ml (113 grams ABA analog/acre) applied to each of 9 vines per treatment arranged in three replicates of three vines each. The following spring prior to bud break the vines were pruned to 3-6 buds per spur and bud break of 40 buds per vine (4 buds on each of 10 spurs) was rated periodically using the BBCH (Biologische Bundesanstalt, Bundessortenamt und Chemische Industrie) scale of development where a rating of 1 represents the first sign of bud swelling and 99 represents a defoliated plant re-entering dormancy at the end of the growing season.
When the control fruit had reached maturity three clusters of grapes were randomly harvested from each 3 vine replicate. Brix and pH measurements were made of the juice expressed by hand squeezing the grape clusters. Both the pH and Brix readings were lower for the grapes from the ABA analog treated vines indicating a delay of fruit maturity.

[3] = system: Cabernet Franc grapevines; test: Fall foliar spray of mature Cabernet Franc grapevines, bud break the following spring (BBCH rating); assay type: in vivo; design: key to Average BBCH rating of bud developmental stages: BBCH scale: 1 = first bud swelling, 99 = defoliated, re-entering dormancy; conditions: for Average BBCH rating of bud developmental stages: 300 ppm in 0.1% Brij 98, fall foliar application; for Delay of bud break the following spring / Impact on bud mortality: foliar application at about 0.125 grams per vine in the fall
Protocol: as §1

Concord grapevines [4] = test: Fall soil drench of potted Concord grapevines, bud break the following spring; assay type: in vivo; design: key to Average rating of bud break (1-6 scale): 1 = no growth to 6 = three or more leaves showing; conditions: for Average rating of bud break (1-6 scale): 100 ppm (100 mg/pot) fall soil drench
Protocol: A study was conducted to determine the effect of application of ABA or ABA analog as a soil drench in the fall on bud break of potted Concord grapevines the following spring. Two year old eco-dormant Concord grapevines were obtained from a Concord Nurseries in the spring. Bare-root vines were planted in 14 liter pots filled with Promix BX (available from Premier Horticulture Inc. Quakertown, Pa.) and grown outside for about 5 months (May October) prior to treatment. Plants received irrigation as needed and fertilized weekly (1 g/L all purpose fertilizer 20-20-20, The Scotts Company, Marysville, Ohio). Uniform plants were selected for the study. A total of 1000 mL of water or chemical solution was applied to the soil of each plant.
After chemical treatment, the ten replicate plants per treatment were arranged in a randomized complete block experimental design. The potted vines were surrounded by bark chips the depth of the soil in the pot to insulate the roots and prevent cold damage. The plants became dormant for the winter. In the following spring the vines were pruned to 5 buds per vine before bud break and bud break was monitored over time (Table 4). The buds were rated for bud break periodically on a scale from 1 for no growth to 6 for three or more leaves showing
Potted Concord grapevines were treated with 1000 mL water, solution containing 1000 mg ABA or solution containing 100 mg PBI-429. The dose of RBI-429 was used at one-tenth of ABA dose based on the preliminary results.

PF-11 nectarine trees [5] = test: Fall foliar spray of PF-11 nectarine trees, fruit number per tree the following spring; assay type: in vivo
Protocol: (§2) A study was conducted to determine the effect of spraying nectarine trees with ABA or ABA analogs in the fall on bud break the following spring. Mature PF-11 nectarine trees were sprayed to drip with surfactant alone or surfactant and ABA or ABA analog on Oct. 19, 2009. Trees were sprayed with approximately 500 ml (20.5 grams ABA analog/acre) applied to each of 6 trees per treatment arranged in a randomized complete block design. The following spring bud break on pre-selected branches was monitored.

PF-11 nectarine trees [6] = test: Fall foliar spray of PF-11 nectarine trees, bud break the following spring; assay type: in vivo
Protocol: as §2

Concord grape vines = test: Spring spray of eco-dormant field grown Concord grape vines, bud break; assay type: in vivo, Concord grapevines; conditions: 100 ppm PBI-429 plus 0.5% Brij 98, sprayed 2 times in spring
Protocol: A study was conducted to evaluate the effect of spraying eco-dormant Concord grape vines with ABA or ABA analog plus surfactants on bud break. Mature field grown Concord grape vines were sprayed to runoff 2 times in the spring after pruning and before bud swell. Three replicates of 3 vines each were treated with each treatment solution. Treatments were arranged in a randomized complete block design down a single vineyard row, Bud break was monitored by counting the number of broken buds of the distal 5 buds on 4 proximal canes on the middle vine of each 3 vine replicate. Bud break was only very slightly delayed by any of the treatments compared to the water sprayed control (Table 1).

Concord grapevines [7] = test: Repeated spray of potted Concord grapevines during the bud break period; assay type: in vivo; conditions: for Average number of broken buds per vine: 100 ppm in 0.05% Silwet L77, repeated spray
Protocol: A study was conducted to determine the effect of spraying Concord grapevines with ABA or ABA analog PBI-429 during bud break. Potted concord grapevines were placed in greenhouse conditions to promote bud break and the vines were repeatedly sprayed with ABA or ABA analog solutions. The vines were sprayed 2, 4, 8, 12 and 14 days after exposure of the vines into bud break promoting temperatures. Bud break was rated 6, 7, 8, 11, 12, 13, 14, 15, 19 and 20 days after vines were placed in warm bud break promoting conditions.

[8] = 100 ppm in 0.1% Silwet Brij 98, fall foliar application

C#CC1(C)CC(=O)C=C(C)C1(O)C=CC(C)=CC(=O)O (racemic) [PBI-524]
Average number of broken buds per vine [1, 8]: 13
Average number of broken buds per vine ([1]; 1000 ppm in 0.1% Silwet Brij 98, fall foliar application): 2
Effect on bud break the following spring [1]: delayed bud break
Impact on bud mortality [1]: without apparent impact on bud mortality
Brix of juice [2]: 19.37
pH of juice [2]: 3.14
Effect on maturation of the following crop of grapes (juice pH and Brix) [2]: delayed maturation
Average BBCH rating of bud developmental stages ([3]; May 1, 2009): 0.0
Average BBCH rating of bud developmental stages ([3]; May 5): 0.4
Average BBCH rating of bud developmental stages ([3]; May 12): 1.0
Average BBCH rating of bud developmental stages ([3]; May 21): 3.7
Average BBCH rating of bud developmental stages ([3]; May 28): 6.7
Delay of bud break the following spring [3]: about 15 days
Impact on bud mortality [3]: without apparent impact on bud mortality

C#CC1(C)CC(=O)C=C(C)C1(O)/C=C/C(C)=C\C(=O)OC (centres unmarked) [PBI-429, 8′acetylene-ABA methyl ester]
Delay of bud break compared to ABA treated or untreated vines (Concord grapevines [4]; 100 mg fall soil drench): about 2 weeks
Average rating of bud break (1-6 scale) (Concord grapevines [4]; Apr. 23, 2008): 1.0
Average rating of bud break (1-6 scale) (Concord grapevines [4]; April 28): 1.0
Average rating of bud break (1-6 scale) (Concord grapevines [4]; April 30): 1.0
Average rating of bud break (1-6 scale) (Concord grapevines [4]; May 2): 1.0
Average rating of bud break (1-6 scale) (Concord grapevines [4]; May 5): 1.0
Average rating of bud break (1-6 scale) (Concord grapevines [4]; May 7): 1.0
Average rating of bud break (1-6 scale) (Concord grapevines [4]; May 9): 1.0
Average rating of bud break (1-6 scale) (Concord grapevines [4]; May 12): 1.0
Average rating of bud break (1-6 scale) (Concord grapevines [4]; May 14): 1.0
Average rating of bud break (1-6 scale) (Concord grapevines [4]; May 16): 1.0
Average rating of bud break (1-6 scale) (Concord grapevines [4]; May 19): 1.2
Average rating of bud break (1-6 scale) (Concord grapevines [4]; May 21): 1.2
Average rating of bud break (1-6 scale) (Concord grapevines [4]; May 23): 1.8
Average rating of bud break (1-6 scale) (Concord grapevines [4]; May 28): 2.7
Average number of fruit per tree (PF-11 nectarine trees [5]; 100 ppm in 0.1% Brij 98, fall foliar application, June 10): 75
Effect on number of fruit per tree the following spring (PF-11 nectarine trees [5]; fall foliar application): reduced the number of fruit per tree
Potency relative to ABA in delaying bud break (PF-11 nectarine trees [6]; 100 ppm PBI-429 versus 10,000 ppm ABA, fall foliar application): about 100 times
Percentage of broken floral buds (PF-11 nectarine trees [6]; 100 ppm in 0.1% Brij 98, fall foliar application, April 8): 56 Percentage
Average percent broken buds (Concord grape vines; April 24): 8%
Average percent broken buds (Concord grape vines; April 30): 18%
Average number of broken buds per vine (Concord grapevines [7]; 6 days after warming): 0.7
Average number of broken buds per vine (Concord grapevines [7]; 7 days after warming): 0.7
Average number of broken buds per vine (Concord grapevines [7]; 8 days after warming): 1.7
Average number of broken buds per vine (Concord grapevines [7]; 11 days after warming): 2.5
Average number of broken buds per vine (Concord grapevines [7]; 12 days after warming): 2.5
Average number of broken buds per vine (Concord grapevines [7]; 13 days after warming): 3.0
Average number of broken buds per vine (Concord grapevines [7]; 14 days after warming): 3.0
Average number of broken buds per vine (Concord grapevines [7]; 15 days after warming): 4.0
Average number of broken buds per vine (Concord grapevines [7]; 19 days after warming): 4.3
Average number of broken buds per vine (Concord grapevines [7]; 20 days after warming): 4.3
Effect on average number of broken buds over time (Concord grapevines [7]; repeated spray application during the bud break period): not significantly impacted
Brix of juice [2]: 19.32
pH of juice [2]: 3.16
Effect on maturation of the following crop of grapes (juice pH and Brix) [2]: delayed maturation
Average BBCH rating of bud developmental stages ([3]; May 1, 2009): 0.1
Average BBCH rating of bud developmental stages ([3]; May 5): 0.4
Average BBCH rating of bud developmental stages ([3]; May 12): 1.0
Average BBCH rating of bud developmental stages ([3]; May 21): 3.2
Average BBCH rating of bud developmental stages ([3]; May 28): 6.0
Delay of bud break the following spring [3]: about 15 days
Impact on bud mortality [3]: without apparent impact on bud mortality

C#CC1(C)CC(=O)C=C(C)C1(O)C=CC(C)=CC(=O)O (centres unmarked) [PBI-425]
Average number of broken buds per vine [1, 8]: 11
Effect on bud break the following spring [1]: delayed bud break
Impact on bud mortality [1]: without apparent impact on bud mortality

Source: US20130072385A1, “METHODS FOR DELAYING BUD BREAK BY APPLYING ABA ANALOGS” (priority 2011, published 2013)
